{"source": "paper PMC6944649", "about": "“Population Pharmacokinetics, Efficacy Exposure-response Analysis, and Model-based Meta-analysis of Fenebrutinib in Subjects with Rheumatoid Arthritis” (Pharmaceutical Research, 2020)", "key": {"[1]": {"assay": "Phase 1 relative bioavailability/food effect/drug-drug interaction study (GP29832), non-compartmental analysis", "type": "in vivo, human", "details": "healthy volunteers"}, "BTK": {"test_system": "BTK", "parameters": "method as in PMID 29484638", "details": "healthy volunteers, Phase 1; cited from earlier work"}, "[2]": {"parameters": "method as in PMID 29484638", "details": "Phase 1, cited from earlier work"}, "[3]": {"test_system": "patients with rheumatoid arthritis", "assay": "Exposure-response (E-R) analysis of longitudinal DAS28 (CRP) in Phase 2 trial GA29350", "type": "in vivo, human", "excerpt": "(§1) GA29350 (ANDES, ClinicalTrials.gov Identifier: NCT02833350) was a multicenter, Phase 2, randomized, double-blind, placebo-controlled, parallel-group, dose-ranging trial to evaluate the efficacy and safety of fenebrutinib in patients with moderate to severe active RA and an inadequate response to previous MTX therapy (cohort 1) or anti-TNF therapy (cohort 2) ([24],[25]).\n(§2) In cohort 1, 480 patients were enrolled, and were randomly assigned to 1 of 5 parallel treatment arms (3 fenebrutinib arms, 1 placebo arm, and 1 adalimumab arm). In the fenebrutinib and placebo arms, subjects received 50 mg QD, 150 mg QD, or 200 mg BID fenebrutinib tablets or placebo tablets, together with subcutaneous (SC) placebo injections every other week for 12 weeks (n = 40 in the 50 mg arm, and n = 109 to 111 in each of the other 4 arms). In the active comparator arm, patients received adalimumab 40 mg SC every other week and placebo tablets for 12 weeks. In cohort 2 (n = 98 enrolled), patients received 200 mg fenebrutinib BID or placebo tablets for 12 weeks.\n(§3) Treatment responses in RA clinical trials are commonly evaluated by the American College of Rheumatology improvement criteria for 20, 50, and 70% threshold values (ACR20, ACR50, and ACR70, respectively), which is a binary response variable, and by the Disease Activity Score with 28-joint counts (DAS28), which is a continuous variable ([27],[28]). Both types of endpoints can be measured repeatedly during the course of the treatment period. The proportion of patients achieving ACR50 responses and analysis of longitudinal DAS28 (CRP) (DAS based on 28 joints and C-reactive protein value) were evaluated as the primary, key secondary, and secondary endpoints in the Phase 2 trial, and therefore, were of primary interest among clinical efficacy endpoints modeled for fenebrutinib. The E-R analyses aimed to establish the relationship between patient-specific fenebrutinib exposure with clinical efficacy endpoints of interest. […]"}, "[4]": {"assay": "Population pharmacokinetic (popPK) analysis of fenebrutinib plasma concentrations (Phase 1 GA29347, GP29832 and Phase 2 GA29350)", "type": "in vivo, human", "description": "Fenebrutinib plasma concentrations were determined by high performance liquid chromatography with tandem mass spectrometry (MS/MS) detection (Covance Laboratories Inc., USA). Calibration plots were linear throughout the range of 0.5 to 500 ng/mL (lower and upper limits of quantification, respectively) for fenebrutinib in human plasma. Relative standard deviation of precision was <7.8%, and the accuracy of the method was between 91.3% and 102.7%.\nFenebrutinib plasma concentrations from subjects providing all available PK data after tablet administration in the clinical studies were integrated into the popPK analysis. The model was characterized initially in healthy subjects ([22]) from the Phase 1 multiple ascending dose (MAD) (GA29347) and a Phase 1 relative bioavailability/food effect/drug-drug interaction (GP29832, ClinicalTrials.gov Identifier: NCT02699710) studies, and later updated to incorporate the Phase 2 data from the three fenebrutinib-treated arms in patients with RA.\nThe popPK model was developed by introducing features in the order of increasing complexity, beginning with very simple models (e.g. one-compartment with first-order elimination), and continuing until further improvement in model fit was not supported by the data.\nCovariate analysis first investigated the effects of pre-defined demographic, laboratory, prognostic, and treatment covariates on all the model parameters by using univariate screening. If >10% of a covariate was missing, the covariate was not included in the popPK analysis. Otherwise, the value of missing covariate observations was imputed as the median of the remaining values from an appropriate sub-population. For example, the missing baseline body weight value was imputed as the gender-adjusted median body weight of the remaining subjects. For categorical covariates, the most frequently occurring value was imputed for subjects with missing values in each trial. Concomitant proton pump inhibitor (PPI) and food were categorized as time-varying covariates, whereas the other categorical covariates were considered as baseline (non-time-varying) covariates. Next, covariates selected from the univariate screening (p value <0.05) were included in the evaluation of a full model followed by backwards elimination (p value <0.01). Effects of continuous covariates were incorporated into the model using the power function and normalized using the median of the covariate. Effects of categorical covariates were parameterized as proportional effects in the model, in which the fractional change on a model parameter was estimated, and the typical category constituted the largest proportion in the analysis population.\nThe final model was determined on the basis of objective function value, physiological plausibility of model parameter estimates, numerical convergence success, parameter estimate precision (relative standard errors <50%), and visual predictive check (VPC) plots. Goodness-of-fit plots were produced to verify the general agreement of fitted values with observed data. Prediction-corrected visual predictive check (pcVPC) was performed by normalizing the observed and simulated dependent variable based on the typical population prediction for the median independent variable in the bin ([26]). The pcVPC was stratified to evaluate the covariate effects of interest, whenever applicable. […]\nModel development was carried out using first order conditional estimation with interaction (FOCE-I) as implemented in NONMEM (version 7.3, ICON Development Solutions, Ellicott City, MD). Post-processing of NONMEM analysis results was carried out in R (version 3.2.2, R Development Core Team, 2008)."}, "[5]": {"test_system": "patients with rheumatoid arthritis", "assay": "Model-based meta-analysis (MBMA) of ACR20, ACR50, ACR70", "type": "in vivo, human", "description": "An efficacy and safety meta-analysis database was constructed in July 2017 using publicly available data of randomized trials in RA, based on the guidelines in the Cochrane Handbook for Systematic reviews. For this, a systematic review of publicly available data from the PubMed, Cochrane Library, and Embase databases was conducted using the search term “rheumatoid arthritis”. Furthermore, an existing database that contained data published in or before 2012 ([30]) was augmented using an additional, systematic, and quality-controlled procedure to search for relevant published studies, extract their data, and add to the existing database yielding pertinent data published through 2017.\nThe summary data of the database were explored systematically to determine the amount of data available for each treatment, efficacy and safety endpoint across trials, distribution of mean patient characteristics, and to graphically view the time course of longitudinal endpoints, placebo effect, active treatment effect from each of the comparator treatments, and the effects of patient and trial characteristics. Response rates of ACR20, ACR50, and ACR70 in terms of the proportion of patients achieving specified thresholds were the most prevalent efficacy endpoints in the database, and therefore, were chosen as the variables for model development using MBMA. Because of the relatively few adverse events observed in the fenebrutinib Phase 2 trial in RA ([24]), MBMA for safety events, such as serious infections, was not conducted.\nThe model simultaneously fit ACR20, ACR50, and ACR70 longitudinal data, and a non-linear mixed effects (NLME) estimation method was carried out using R. This hierarchical regression model used maximum likelihood estimation, and multiple levels of heterogeneity were described as mixed effect variability terms accommodating between-trial and within-trial variability. […]\nThe adequacy of model fits across trials was evaluated by visually inspecting time course plots of observed distributions vs. predicted values. […]"}, "[6]": {"test_system": "patients with rheumatoid arthritis", "assay": "Exposure-response (E-R) analysis of longitudinal ACR20, ACR50, ACR70 in Phase 2 trial GA29350", "type": "in vivo, human", "excerpt": "as §1, §2, §3"}}, "data": [{"compound": "C[C@H]1CN(C2COC2)CCN1c1ccc(Nc2cc(-c3ccnc(N4CCn5c(cc6c5CC(C)(C)C6)C4=O)c3CO)cn(C)c2=O)nc1", "note": "[fenebrutinib]", "values": [{"measurement": "PPI effect on Cmax", "setting": "[1]", "value": "PPI decreases the Cmax"}, {"measurement": "food effect on concentration-time profile and Tmax", "setting": "[1]", "value": "food blunts the concentration-time profile and delays the Tmax"}, {"measurement": "inhibition of BTK", "setting": "BTK", "value": "dose- and concentration-dependent inhibition"}, {"measurement": "accumulation", "setting": "[2]; following twice daily dosing", "value": "modest accumulation"}, {"measurement": "increase of plasma exposures with dose", "setting": "[2]; healthy subjects", "value": "approximately dose-proportionally"}, {"measurement": "steady-state half-life", "setting": "[2]; healthy subjects", "value": "4.2 to 9.9", "unit": "h"}, {"measurement": "time of peak plasma concentrations after oral administration", "setting": "[2]; healthy subjects", "value": "1 to 3", "unit": "h"}, {"measurement": "Time of 50% drug effect", "setting": "[3]; DAS28 (CRP) E-R model θ4", "value": 47, "unit": "days"}, {"measurement": "Maximum drug effect over time (DAS28)", "setting": "[3]; DAS28 (CRP) E-R model θ6", "value": -0.964}, {"measurement": "ω2Max drug effect", "setting": "[3]; DAS28 (CRP) E-R model ω2.2, inter-individual variability", "value": 0.283}, {"measurement": "apparent clearance (CL/F) decrease with concomitant administration of PPI", "setting": "[4]; concomitant PPI", "value": 33.7, "unit": "%"}, {"measurement": "CL/F: Apparent systemic clearance", "setting": "[4]; final popPK model estimate θ1, oral, typical RA patient", "value": 19.5, "unit": "L/h"}, {"measurement": "NTR: Number of transit compartments", "setting": "[4]; final popPK model estimate θ7, transit compartment absorption model", "value": 14.9}, {"measurement": "MTT: Mean transit time", "setting": "[4]; final popPK model estimate θ8", "value": 0.849, "unit": "h"}, {"measurement": "Food effect on MTT", "setting": "[4]; final popPK model estimate θ11, covariate effect", "value": 1.43}, {"measurement": "PPI effect on MTT", "setting": "[4]; final popPK model estimate θ12, concomitant proton pump inhibitor", "value": 0.835}, {"measurement": "PPI and food effect on MTT", "setting": "[4]; final popPK model estimate θ13", "value": 2.26}, {"measurement": "PPI effect on F1", "setting": "[4]; final popPK model estimate θ14, F1 relative extent of absorption", "value": 0.657}, {"measurement": "PPI and food effect on F1", "setting": "[4]; final popPK model estimate θ15", "value": 0.693}, {"measurement": "Food effect on NTR", "setting": "[4]; final popPK model estimate θ16", "value": 0.864}, {"measurement": "Tablet effect on NTR", "setting": "[4]; final popPK model estimate θ17, formulation effect", "value": 0.049}, {"measurement": "Vd/F", "setting": "[4]; human, plasma, oral, final popPK model estimate θ2, read-out: V1/F: Apparent central volume of distribution", "value": 381, "unit": "L"}, {"measurement": "ω^2CL/F", "setting": "[4]; inter-individual variability ω1.1", "value": 0.0732}, {"measurement": "ω^2V1/F", "setting": "[4]; inter-individual variability ω2.2", "value": 0.100}, {"measurement": "ω^2MTT", "setting": "[4]; inter-individual variability ω8.8", "value": 0.0861}, {"measurement": "ω^2F1", "setting": "[4]; inter-individual variability ω9.9", "value": 0.131}, {"measurement": "ω^2IOV on F1", "setting": "[4]; inter-occasion variability ω10.1", "value": 0.299}, {"measurement": "higher apparent clearance in healthy subjects than patients with RA", "setting": "[4]; two Phase 1 studies vs Phase 2 trial", "value": 52, "unit": "%"}, {"measurement": "efficacy in terms of ACR20, ACR50, and ACR70 compared to the registrational doses of adalimumab and tofacitinib", "setting": "[5]; MBMA simulation, 200 mg BID, TNF-IR patients, 12 weeks after initiation of treatment", "value": "comparable efficacy"}, {"measurement": "ED50, dose at which 50% of efficacy", "setting": "[5]; calculated from E-R EC50 and fixed in MBMA model", "value": 525, "unit": "mg/week"}, {"measurement": "Max drug effect over time - Eastern Europe", "setting": "[6]; ACR20/50/70 E-R model θ9, logit scale", "value": 1.39}, {"measurement": "Max drug effect over time - Latin America", "setting": "[6]; ACR20/50/70 E-R model θ14", "value": 2.06}, {"measurement": "efficacy versus exposure (ACR responses and DAS28 (CRP))", "setting": "[6]; graphical exploration and model-based simulation, cohort 1 MTX-IR patients, exposure range of Phase 2 study", "value": "plateau of efficacy was achieved"}]}, {"compound": "adalimumab [reference compound]", "values": [{"measurement": "ACR20, ACR50, and ACR70 response rates in arm of the fenebrutinib Phase 2 trial versus historical data", "setting": "[5]; adalimumab 40 mg SC every other week arm, MBMA", "value": "consistent with historical data"}]}]}
